Consider 13 compounds from US20230002355A1 (NANJING SANHOME PHARMACEUTICAL CO., LTD., priority 2019, published 2023).

Like-named read-outs stand apart in the source and are kept apart here.

For one data set, the system named is NCI-H358 cells. The experiment in a line: Cell proliferation inhibition test (CCK-8). Format: cell-based. The settings on record: NCI-H358 human non-small cell lung cancer cells, 168 h, read-out: NIH358 cell proliferation inhibition IC50. The method, then: Test compounds: The compounds prepared in examples and comparative example of the present disclosure was tested. Each compound was formulated with DMSO into 20 mM. The concentrations of the compounds acting on NCI-H358 cells were 100 μM, 25 μM, 6.25 μM, 1.56 μM, 0.391 μM, 0.098 μM, 0.024 μM, 0.006 μM, 0.0015 μM, and 0.00038 μM successively.
Human non-small cell lung cancer cells NCI-H358 were purchased from the American Type Culture Collection (ATCC).
Reagents: The CCK-8 proliferation inhibition detection kit was purchased from Jiangsu KeyGEN BioTECH Co., Ltd. The CKX41 inverted microscope was purchased from Olympus, Japan. The multi-mode microplate reader was purchased from Molecular Devices, USA. The cell culture incubator was purchased from Thermo, USA.
Cell recovery: A NCI-H358 cell cryogenic vial was taken out from a liquid nitrogen tank, placed in water bath at 37° C., and shaked gently to allow it to thaw. The thawed cryogenic vial was disinfected with alcohol cotton, and opened to aspirate the cell fluid into a centrifuge tube. To the centrifuge tube, 1 mL of serum-containing complete medium was added and well-mixed. The centrifuge tube was placed into a centrifuge, for centrifugation at 1000 rpm for 5 min. Then the supernatant was discarded, and complete medium was added to completely dissipate and resuspend the cells through repeated pipetting. The cells were seeded in petri dishes at appropriate concentrations and cultured in a CO2 incubator at 37° C., with 5% CO2, 95% humidified air.
Cell passage: After the cells grew to about 80-90% confluence, the original culture medium (1640 culture medium+10% FBS+1% penicillin-streptomycin+1 mM sodium pyruvate) was discarded, and 1 mL of PBS was added to wash away the residual medium and then discarded. 1 mL of trypsin digestion solution was added to digest for 1-2 min. […] The cell suspension was collected by gently pipetting, and centrifuged at 1000 rpm for 5 min. After discarding the supernatant, the cells was resuspended in complete medium, seeded in petri dishes at the required density, and then cultured in a CO2 incubator at 37° C., with 5% CO2, 95% humidified air. Depending on cell growth, the culture medium was changed or passaged every 2-3 days.
After NCI-H358 cell passage, the cells were resuspended in fresh culture medium (1640 culture medium+3% FBS+1% penicillin-streptomycin+1 mM sodium pyruvate), and counted. The cells were seeded into a 96-well culture plate at a density of 1.5×10^4 cells/mL, with each well added 100 μL thereto (ie, 1.5×10^3 cells/well). After 24 h, 100 μL of fresh culture medium containing different drug concentrations (2×) was added to the old culture medium. The final concentrations of the compounds were 100 μM, 25 μM, 6.25 μM, 1.56 μM, 0.391 μM, 0.098 μM, 0.024 μM, 0.006 μM, 0.0015 μM, and 0.00038 μM, with each concentration group set two replicate wells. The cells were […] in the incubator again for 168 h. The culture medium in wells was discarded as thoroughly as possible, and 100 μL of culture medium containing CCK-8 (CCK-8:culture medium=1:10) was added. After a certain time of culture in the incubator, the 96-well plate was taken out of the incubator, and allowed to equilibrate at room temperature for 5 min. The absorbance (OD value) at 450 nm was detected in a multi-mode plate reader, and the cell proliferation inhibition rate was calculated. The calculation formula was Inhibition (%)=100−(ODexperiment well−ODblank well)/(ODsolvent control well−ODblank well)×100. According to different drug concentrations and their corresponding inhibition rates, IC50 curves were plotted using GraghPad 5.0 software, to analyze the data and to obtain final IC50.

A short description of data set [1]: Pharmacokinetic experiment in mice. Type of data set: in vivo. The conditions noted are these: mouse, plasma, male BALB/c mice; for bioavailability: I.G. 10 mg/kg vs IV 1 mg/kg, read-out: bioavailability F; for AUC(0-inf) / AUC(0-t) / Cmax / half-life: I.G., 10 mg/kg. The method, then:
Compounds: The compounds of the present disclosure prepared in the above examples were tested. The drug vehicle was Captisol/50 mM sodium acetate with pH 4.6 (10%/90%, w/v %). Oral drugs were formulated into a 0.5 mg/mL clear solution. Intravenous drug were formulated into a 0.1 mg/mL clear solution.
Animals: Male BALB/c mice, SPF grade, were purchased from Shanghai SIPPR-Bk Lab Animal Co., Ltd, with a weight of 18-20 g, and adapted for 2-3 days before experiments.
Instrument: API4500-type Triple Quadrupole LC/MS System, from AB, United States, equipped with electrospray ion source (ESI) and dual pumps LC-30AD; SIL-30AC autosampler; CTO-30AC column oven; DGU-20A3R degasser; AnalystQSA01.01 chromatography workstation; Milli-Q ultrapure water device (Millipore Inc); QilinbeierVortex-5 shaker; HITACHI CF16RX II desktop high-speed freezing centrifuge.
(1) There were 3 mice per group. The compounds of the examples of the present disclosure were given by intragastric administration (I.G.) at 10 mg/kg, or the compounds of the examples of the present disclosure were given by intravenous (IV) administration at 1 mg/kg.
(2) At 5 min, 15 min, 30 min, 1 h, 2 h, 6 h, 10 h, and 24 h after the intragastric administration or intravenous administration, blood was collected from the orbital venous plexus in heparinized EP tubes (0.6 ML), and centrifuged at 8000 rpm/min for 5 min. The upper plasma was taken, frozen at −20° C. and analyzed by LC-MS/MS.
(3) Plasma drug concentration-time curves were plotted according to blood drug concentration data obtained from the above-mentioned step. Pharmacokinetic parameters were calculated by using WinNonlin software.

Regarding `Cn1c(N2CCC3(CC2)Cc2ccccc2[C@H]3N)nc(N)c(Sc2cccnc2C(F)(F)F)c1=O` [Example 1, (S)-6-amino-2-(1-amino-1,3-dihydrospiro[indene-2,4′-piperidin]-1′-yl)-3-methyl-5-((2-(trifluoromethyl)pyridin-3-yl)thio)pyrimidin-4(3H)-one], in the data set with NCI-H358 cells, the IC50 stood at 1.6 nM.
On the same count and under the same terms, with `Cn1c(N2CCC3(CC2)Cc2ccccc2[C@H]3N)nc(N)c(Sc2cccc(C#N)c2Cl)c1=O` [Example 9, (S)-3-((4-amino-2-(1-amino-1,3-dihydrospiro[indene-2,4′-piperidine]-1′-yl)-1-methyl-6-oxo-1,6-dihydropyrimidin-5-yl)thio)-2-chlorobenzonitrile] the figure was 1.5 nM.
The term bioavailability denotes the share of a dose that reaches the circulation, judged against a reference dose that is usually intravenous. A word on the AUC(0-inf): it is total exposure, with the tail of the curve extrapolated. Higher therefore signals more exposure. Broadly, the AUC(0-t) is the area under the concentration-time curve up to a stated or last time point. A low value points to low exposure. The term Cmax denotes the highest concentration seen after dosing. A word on the half-life: it is the time in which the quantity being followed falls by half. For the compound `Cc1nc(N2CCC3(CC2)Oc2ccccc2[C@H]3N)n2ccnc2c1-c1cccc(Cl)c1Cl` [Example 48, (R)-1′-(8-(2,3-dichlorophenyl)-7-methylimidazo[1,2-c]pyrimidin-5-yl)-3H-spiro[benzofuran-2,4′-piperidine]-3-amine], in data set [1] (po), the bioavailability was 81.2%, the AUC(0-inf) was determined as 37000 ng·h/mL, the exposure AUC(0-t) was found to be 24200 ng·h/mL and the Cmax was found to be 1890 ng/mL. Besides, the half-life in data set [1] (po) was 15.6 h. Moreover, the IC50 in the data set on NCI-H358 cells was found to be 12 nM.
Turning to `Cn1c(N2CCC3(CC2)Oc2ccccc2[C@H]3N)nc2n[nH]c(-c3ccnc(NC4CC4)c3Cl)c2c1=O` [Example 51], in the data set with NCI-H358 cells, the IC50 came to 6 nM.
Still for that read-out and setting: the figure for `COc1cccc(-c2c(C)nc(N3CCC4(CC3)Oc3ccccc3[C@H]4N)n3ccnc23)c1Cl` [Example 49, (R)-1′-(8-(2-chloro-3-methoxyphenyl)-7-methylimidazo[1,2-c]pyrimidin-5-yl)-3H-spiro[benzofuran-2,4′-piperidine]-3-amine] is 13.3 nM.
In the case of `Cn1c(N2CCC3(CC2)Oc2ccccc2[C@H]3N)nc(N)c(Sc2cccnc2C(F)(F)F)c1=O` [Example 53, (R)-6-amino-2-(3-amino-3H-spiro[benzofuran-2,4′-piperidine]-1′-yl)-3-methyl-5-((2-(trifluoromethyl)pyridin-3-yl)thio)pyrimidin-4(3H)-one], in data set [1] (po), the bioavailability was 74.3%, the AUC(0-inf) was 7410 ng·h/mL, the area under the curve AUC(0-t) worked out at 6520 ng·h/mL and the Cmax was 1390 ng/mL. The same compound showed a half-life in data set [1] (po) of 3 h. Besides, in the data set with NCI-H358 cells, the IC50 was determined as 4.9 nM.
Turning to `Nc1nccc(Sc2cnc(N3CCC4(CC3)Oc3ccccc3[C@H]4N)n3ccnc23)c1Cl` [Example 45], in data set [1] (po), the bioavailability was 78.3%, the area under the curve AUC(0-inf) stood at 21600 ng·h/mL, the AUC(0-t) came out at 19400 ng·h/mL and the peak level (Cmax) was 1590 ng/mL. The compound also gave a half-life in data set [1] (po) of 7.3 h. For the same compound, the IC50 in the data set with NCI-H358 cells was found to be 3.9 nM.
Turning to `Cn1c(N2CCC3(CC2)Cc2ccccc2[C@H]3N)nc(N)c(Sc2ccnc(N)c2Cl)c1=O` [Example 8], the IC50 in the data set with NCI-H358 cells turned out to be 3.3 nM.
Consider `Nc1nccc(Sc2cnc(N3CCC4(CC3)Cc3ncccc3[C@H]4N)n3ccnc23)c1Cl` [Example 46, (S)-1′-(8-((2-amino-3-chloropyridin-4-yl)thio)imidazo[1,2-c]pyrimidin-5-yl)-5,7-dihydrospiro[cyclopenta[b]pyridine-6,4′-piperidine]-5-amine], for which the IC50 in the data set on NCI-H358 cells amounted to 8.5 nM.
With `Nc1nc(N2CCC3(CC2)Oc2ccccc2[C@H]3N)cnc1Sc1ccnc(N)c1Cl` [Compound A], the bioavailability in data set [1] (oral) is 51.2%. Moreover, the IC50 with NCI-H358 cells amounted to 18.3 nM.
On to `Cc1ncccc1Sc1c(N)nc(N2CCC3(CC2)Cc2ccccc2[C@H]3N)n(C)c1=O` [Example 6, (S)-6-amino-2-(1-amino-1,3-dihydrospiro[indene-2,4′-piperidine]-1′-yl)-3-methyl-5-((2-methylpyridin-3-yl)thio)pyrimidin-4(3H)-one], for which the IC50 in the data set with NCI-H358 cells was 2.8 nM.
As to `Cn1c(N2CCC3(CC2)Cc2ccccc2[C@H]3N)nc(N)c(Sc2ccc(N)nc2Cl)c1=O` [Example 4, (S)-6-amino-2-(1-amino-1,3-dihydrospiro[indene-2,4′-piperidine]-1′-yl)-3-methyl-5-((6-amino-2-chloropyridin-3-yl)thio)pyrimidin-4(3H)-one], the IC50 with NCI-H358 cells was determined as 5.6 nM.
As to `Nc1nccc(Sc2cnc(N3CCC4(CC3)Oc3ccccc3[C@H]4N)n3ccnc23)c1F` [Example 47, (R)-1′-(8-(((2-amino-3-fluoropyridin-4-yl)thio)imidazo[1,2-c]pyrimidin-5-yl)-3H-spiro[benzofuran-2,4′-piperidin]]-3-amine], the IC50 in the data set with NCI-H358 cells stood at 16.7 nM.
